In patent publication US20220112199A1, “EGFR INHIBITOR FOR MEDICAL USE” (Hoffmann-La Roche Inc., priority 2019, published 2022):

Biological target: T1, EGFR TMLRCS (T790M/L858R/C797S) in BaF3-TMLRCS cell line (Homo sapiens, UniProt P00533, C797S/L858R/T790M)
T1 construct: host or cells: BaF3 (BaF3-TMLRCS cell line)
Assay: HTRF Phospho EGFR TMLRCS Assay (Cellular)
Format: cell-based
Conditions: BaF3-TMLRCS cells, 4 hours incubation
Method: HTRF Phospho EGFR TMLRCS Assay (Cellular)
BaF3-TMLRCS cell line were obtained from Crownbio (San Diego, Calif., USA). Cells were maintained at 37° C., 5% CO2 in RPMI ATCC (Gibco 31870)+2 mM Glutamine+0.5 μg/ml Puromycin supplemented with 10% fetal bovine serum (FBS) (Gibco).
Cells are transferred as above to Greiner Bio-One, Nr. 784-08 micro-titerplate at 20000 cells/well in 12.5 μl of growth medium/well after the plates had been pre-filled with 12.5 nl of DMSO solutions of the to be tested compounds (in dose response) or DMSO only. After spinning the plates at 300 ×g for 30 seconds the cells were incubated for 4 hours at 37 C, 5% CO2, 95% humidity. The cells were lysed by adding to the compound mix 4 μl/well of the supplemented lysis buffer (Cis-bio, Phospho-EGFR HTRF kit, 64EG1PEH), followed by incubation for 30 min at room temperature with shaking (400 rpm). The plates were then frozen and stored overnight at −80 C. […] The lidded plates were then incubated for 4 h at room temperature before reading the fluorescence emission at 616 and 665 nm using an Envision reader (Perkin Elmer). Data was analyzed in similar fashion as above using the normalized ratio of the 665 to 616 signals multiplied by 10000.

T1 sequence (P00533 25-1210 T790M/C797S/L858R): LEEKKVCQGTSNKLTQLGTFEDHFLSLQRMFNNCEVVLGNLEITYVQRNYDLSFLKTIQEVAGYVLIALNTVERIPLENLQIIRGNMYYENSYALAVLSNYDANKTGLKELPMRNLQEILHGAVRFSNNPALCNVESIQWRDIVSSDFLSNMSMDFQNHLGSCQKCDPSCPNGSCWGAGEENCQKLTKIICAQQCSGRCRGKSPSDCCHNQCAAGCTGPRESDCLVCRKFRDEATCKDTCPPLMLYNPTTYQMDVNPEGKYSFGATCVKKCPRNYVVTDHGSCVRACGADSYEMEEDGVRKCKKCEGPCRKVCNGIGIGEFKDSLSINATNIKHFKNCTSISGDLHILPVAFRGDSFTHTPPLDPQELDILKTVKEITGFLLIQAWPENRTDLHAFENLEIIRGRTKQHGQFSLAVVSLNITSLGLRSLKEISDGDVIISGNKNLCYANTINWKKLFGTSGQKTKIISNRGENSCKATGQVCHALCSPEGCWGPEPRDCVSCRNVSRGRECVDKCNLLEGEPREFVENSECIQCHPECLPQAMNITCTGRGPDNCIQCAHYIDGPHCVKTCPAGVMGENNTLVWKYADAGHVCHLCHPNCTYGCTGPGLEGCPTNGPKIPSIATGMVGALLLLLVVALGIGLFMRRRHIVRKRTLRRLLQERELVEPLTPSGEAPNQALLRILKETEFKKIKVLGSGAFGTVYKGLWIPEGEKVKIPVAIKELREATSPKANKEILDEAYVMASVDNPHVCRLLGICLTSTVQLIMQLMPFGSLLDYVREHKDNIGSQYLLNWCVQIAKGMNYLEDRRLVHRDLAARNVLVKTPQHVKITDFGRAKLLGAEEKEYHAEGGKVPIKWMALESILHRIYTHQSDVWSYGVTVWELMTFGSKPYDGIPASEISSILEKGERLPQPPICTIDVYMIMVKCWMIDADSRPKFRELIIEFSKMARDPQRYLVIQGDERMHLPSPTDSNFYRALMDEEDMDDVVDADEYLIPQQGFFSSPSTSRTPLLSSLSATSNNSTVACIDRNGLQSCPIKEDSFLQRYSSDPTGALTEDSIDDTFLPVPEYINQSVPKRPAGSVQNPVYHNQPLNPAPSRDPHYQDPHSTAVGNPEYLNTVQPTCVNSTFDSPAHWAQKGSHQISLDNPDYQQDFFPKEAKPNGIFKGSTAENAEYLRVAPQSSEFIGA

O=C(Nc1nccs1)C(c1ncn2c1CCC2)N1Cc2c(cc(C#Cc3ccc(CN4CCC(O)CC4)cc3)cc2C(F)(F)F)C1=O (racemic) [Example 1, (2RS)-2-(6,7-Dihydro-5H-pyrrolo[1,2-c]imidazol-1-yl)-2-[6-[2-[4-[(4-hydroxy-1-piperidyl)methyl]phenyl]ethynyl]-1-oxo-4-(trifluoromethyl)isoindolin-2-yl]-N-thiazol-2-yl-acetamide]
IC50: 14 nM
